Data on seven molecules can be found in paper PMC12284513, “Unique structural features define the decarboxylation activity of a CYP152 fatty acid decarboxylase from Lacicoccus alkaliphilus” (The Journal of Biological Chemistry, 2025).

One data set has as its system OleTJE L176I. The experiment in a line: Fatty acid bioconversion with H2O2 as co-substrate (alkene by GC-MS, hydroxy products by HPLC-MS). Format: biochemical, Jeotgalicoccus sp. 8456. As to conditions: for Decarboxylation activity of OleTJE L176I compared to that of OleTJE wild type: 200 μM substrate, 400 μM H2O2. As for the experimental part: A reaction was typically quenched by adding 2-fold reaction volume of ethyl acetate which contained 30 μM of tetradecane as an internal standard. The reaction mixtures were vortexed for 1 min and then centrifuged at 12,000 rpm, 4 °C for 10 min to separate an organic and an aqueous phase. The organic phase was injected into an Agilent gas chromatography system (GC-MS) (Agilent 7890B equipped with Agilent 5977B MSD) equipped with a HP5-MS column (30 m × 0.25 mm × […]) (Agilent), and helium was used as a carrier gas. The oven conditions for C10FA and 1-nonene (C9 alkene) were ramped up from 60 to 240 °C with a rate of 19 ° C min^−1 and held at 240 °C for 1 min. […] For C18FA and 1-heptadecene (C17 alkene), the oven was ramped up from 60 to 250 °C with a rate of 22 °C min^−1 and hold at 250 °C for 4 min. For C20FA and 1-nonadecene (C19 alkene), the oven was ramped up from 100 to 250 °C with a rate of 23 °C min^−1 and held at 250 °C for 6 min. The response of target compounds was normalized with signals of the internal standard. The concentration of each compound was calculated based on a standard calibration curve.
For analyzing hydroxylated products of fatty acids, the reactions were quenched by adding an equal volume of acetonitrile, centrifuged, and filtrated. The analytes (10 μl) were injected into a liquid chromatography coupled with diode array and single quadrupole mass spectroscopy detection (LC-DAD/MS) (Agilent 1290 Infinity II LC System equipped with DAD, Single Quadrupole Mass Spectrometers system). A Zorbax eclipse plus C18 column (5 μm, 4.6 × 250 mm) (Agilent Technology) was used for separation. The mobile phase system A was water with 0.1% (v/v) formic acid, and system B was acetonitrile with 0.1% (v/v) formic acid.
All fatty acids were prepared in absolute EtOH at 20 mM as stock solutions. The reaction was carried out in 50 mM NaH2PO4 buffer with 300 mM NaCl, pH 7.5, with 2.5 or 10% (v/v) of EtOH, 200 μM of a substrate, and 400 μM of H2O2. The reactions were performed at 25 °C for 1 h, and then the alkene product was measured using GC-MS after the reactions were quenched and extracted with two-fold volume of ethyl acetate.
Site-directed mutagenesis of I178L of OleTLA and […] of OleTJE was done with overlaping PCR that used OleTLA or OleTJE plasmids as templates (Table S4). The PCR products were treated with DpnI in cut smart buffer at 37 °C for 16 h, transformed into E. coli XL−1 blue competent cells and grown at 37 °C on LB agar containing 50 μg/ml ampicillin. The plasmids of selected colonies were extracted for sequence verification. The plasmid containing the correct sequence was transformed into E. coli BL21 (DE3) for enzyme expression. The expression and purification methods of variants were the same as those of wild-type OleTLA and OleTJE.

The subject of data set [1] is Escherichia coli BL21 (DE3) cells co-transformed with pGro7, FdR/FdX system, and OleTLA or OleTJE. Briefly: In vivo bioconversion of C16FA with the FdR/FdX redox partner system. Format: cell-based. The note with it: 128.22 mg/L of C16FA added, cells overexpressing OleTLA and OleTJE. As to the method:
The pRSFDuet−1 vector containing FdR/FdX and OleTLA or OleTJE was transformed into competent E. coli BL21 (DE3) containing a pGro7 plasmid. The transformed cells were incubated in LB broth at 37 °C, 220 rpm for 1.5 h, spread on LB agar with ampicillin (50 μg/ml), kanamycin (34 μg/ml), and chloramphenicol (20 μg/ml), and incubated at 37 °C for overnight. A single colony was inoculated into a starter culture in an auto-induction medium with appropriate antibiotics and 1% (w/v) of glucose. The culture was then incubated at 37 °C, 220 rpm overnight. Then, 1% (v/v) of the starter was inoculated into the auto-induction medium in the presence of ammonium iron (III) citrate (20 ug/ml), L-arabinose (2 mg/ml), ampicillin (50 μg/ml), kanamycin (34 μg/ml), and chloramphenicol (20 μg/ml), hemin (0.05 mM) and δ-ALA (0.5 mM) and then grown at 37 °C, 220 rpm until OD600 reached about 0.8 to 1.0. […] At a specific time point, the culture medium was sampled and extracted by adding two-fold ethyl acetate with tetradecane as an internal standard. The mixture was vortexed and centrifuged at 4 °C for 10 min. The organic phase was collected and injected into the GC-MS system.

The nature of data set [2]: Thermofluor assay of enzyme melting temperature. Format: physicochemical. As to conditions: reductase enzymes of the redox partner systems (Fig. S16). As for the experimental part: The reactions containing 10 μM of enzyme, 25X of SYPRO Orange Protein Gel Stain solution in 25 μl of a storage buffer were carried out in a CFX96 Real-Time (Bio-Red) Thermal Cycle. The temperature of the experiments was raised from 30 to 80 °C at a continuous rate of 1 °C min^−1. The temperature at which half of the total amount of protein transitioned into an unfolded form is designated as the melting temperature.
On the technique in general: DSF heats the sample and reads unfolding from a dye or from intrinsic fluorescence.

Regarding `CCCCCCCCCCCCCCCCCCCC(=O)O` [C20FA, icosanoic acid], the results for the “Decarboxylation activity of OleTJE L176I compared to that of the wild-type enzyme” value with OleTJE L176I (2.5% (v/v) EtOH) and in the data set with OleTJE L176I (10% (v/v) EtOH) were 37% and 23%, respectively.
As for `C=CCCCCCCCCCCCCC` [C15 alkene, 1-pentadecene], the C15 alkene produced in data set [1] (after 24 h) was 0.42 mg/L; in data set [1] (after 48 h) it was “around 1.26 mg/L”.
For `CCCCCCCCCC(=O)O` [C10FA, decanoic acid], the “Decarboxylation activity of OleTJE L176I compared to that of OleTJE wild type” value in the data set with OleTJE L176I is reported as “less than 1%”.
The same measure, in the same setting: the entry for `CCCCCCCCCCCCCCCCCC(=O)O` [C18FA, octadecanoic acid] is “less than 5%”.
As for `CCCCCCCCCCCC(=O)O` [C12FA, dodecanoic acid], the “Decarboxylation activity of OleTJE L176I compared to that of OleTJE wild type” value in the data set on OleTJE L176I is given as “less than 1%”.

B1: CamA: putidaredoxin reductase, known redox partner, from Pseudomonas putida (protein, UniProt P16640 1-422, looked up)
Putidaredoxin reductase CamA: MNANDNVVIVGTGLAGVEVAFGLRASGWEGNIRLVGDATVIPHHLPPLSKAYLAGKATAESLYLRTPDAYAAQNIQLLGGTQVTAINRDRQQVILSDGRALDYDRLVLATGGRPRPLPVASGAVGKANNFRYLRTLEDAECIRRQLIADNRLVVIGGGYIGLEVAATAIKANMHVTLLDTAARVLERVTAPPVSAFYEHLHREAGVDIRTGTQVCGFEMSTDQQKVTAVLCEDGTRLPADLVIAGIGLIPNCELASAAGLQVDNGIVINEHMQTSDPLIMAVGDCARFHSQLYDRWVRIESVPNALEQARKIAAILCGKVPRDEAAPWFWSDQYEIGLKMVGLSEGYDRIIVRGSLAQPDFSVFYLQGDRVLAVDTVNRPVEFNQSKQIITDRLPVEPNLLGDESVPLKEIIAAAKAELSSA
Consider B1, for which the Tm in data set [2] was determined as 50 °C.

B2: FdR: ferredoxin reductase, redox partner, gene from Escherichia coli K-12 (protein, UniProt P28861 2-248, looked up)
Flavodoxin/ferredoxin--NADP …: ADWVTGKVTKVQNWTDALFSLTVHAPVLPFTAGQFTKLGLEIDGERVQRAYSYVNSPDNPDLEFYLVTVPDGKLSPRLAALKPGDEVQVVSEAAGFFVLDEVPHCETLWMLATGTAIGPYLSILQLGKDLDRFKNLVLVHAARYAADLSYLPLMQELEKRYEGKLRIQTVVSRETAAGSLTGRIPALIESGELESTIGLPMNKETSHVMLCGNPQMVRDTQQLLKETRQMTKHLRRRPGHMTAEHYW
As to B2, the Tm in data set [2] was determined as 60 °C.
